These results are taken from US20220009918A1, “Chemical Compounds” (GlaxoSmithKline Intellectual Property Development Limited, priority 2018, published 2022).

T1 sequence (O60760 whole entry): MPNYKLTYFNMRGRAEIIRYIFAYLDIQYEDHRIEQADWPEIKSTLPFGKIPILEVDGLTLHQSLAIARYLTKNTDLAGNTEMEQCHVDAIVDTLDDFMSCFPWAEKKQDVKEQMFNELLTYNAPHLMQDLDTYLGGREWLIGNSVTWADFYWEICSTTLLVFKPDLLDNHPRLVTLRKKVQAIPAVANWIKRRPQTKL

This assay has as its target T1, human H-PGDS (Homo sapiens, UniProt O60760).
T1 construct: Full length human H-PGDS cDNA (Invitrogen Ultimate ORF IOH13026) was amplified by PCR; 6-His (N); TEV protease cleavage site (N); made in house; host or cells: E. coli BL21 (DE3*) for H-PGDS; Sf9 insect cells (baculovirus) for COX-2
Description: H-PGDS RapidFire high throughput mass spectrometry assay. The assay is classed as biochemical. Particulars: inhibition of conversion of PGH2 to PGD2 by H-PGDS; mean pIC50; read-out: Potency Range (mean pIC50) (converted). The protocol: H-PGDS RapidFire™ High Throughput Mass Spectrometry Assay
The H-PGDS RapidFire™ mass spectrometric assay monitors conversion of prostaglandin H2 (PGH2) to prostaglandin D2 (PGD2) by haematopoietic prostaglandin D synthase (H-PGDS). In the assay format described here, the substrate (PGH2) is formed in situ by the action of cyclooxygenase-2 on arachidonic acid. This first step is set up to be fast, and generates a burst of PGH2 at ˜10 μM. The PGH2 is then further converted to PGD2 by the H-PGDS enzyme. […] Plates are then read on the RapidFire™ high throughput solid phase extraction system (Agilent) which incorporates a solid phase extraction step coupled to a triple quadrupole mass spectrometer (AB SCIEX). Relative levels of PGD2 and PGF2α, which acts as a surrogate for substrate, are measured and a percent conversion calculated. Inhibitors are characterised as compounds which lower the conversion of PGH2 to PGD2.
Full length human H-PGDS cDNA (Invitrogen Ultimate ORF IOH13026) was amplified by PCR with the addition of a 5′ 6-His tag and TEV protease cleavage site. The PCR product was digested with NdeI and XhoI and ligated into pET22b+ (Merck Novagen®). Expression was carried out in E. coli strain BL21 (DE3*) using auto-induction Overnight Express™ Instant TB medium (Merck Novagen®) supplemented with 1% glycerol. The culture was first grown at 37° C. and the temperature was reduced to 25° C. when OD600 reached 2.0. Cells were harvested by centrifugation after a further 18 hours. 10 g of E. coli cell pellet was suspended to a total volume of 80 mL in lysis buffer (20 mM Tris-Cl pH 7.5, 300 mM NaCl, 20 mM imidazole, 5 mM p-mercaptoethanol, 10% glycerol). 1 mg/mL protease inhibitors (Protease Inhibitor Cocktail Set III, Merck Calbiochem®) and 1 mg/mL lysozyme were added to the cell suspension. The suspension was then sonicated for 5 min (UltraSonic Processor VCX 750, Cole-Parmer Instrument Co.) with a micro probe (50% amplitude, 10 sec on/off) and then centrifuged at 100,000 g for 90 minutes (at 4° C.). The supernatant was loaded onto a Ni-NTA HiTrap column (5 mL, GE Healthcare, pre-equilibrated in lysis buffer). The column was washed with 10 column volumes of lysis buffer and eluted with lysis buffer containing 500 mM imidazole. The pooled protein peak fractions were concentrated using a 10 kDa centrifugal filter at 3500 g and 4° C. (Amicon Ultra-15 centrifugal filter unit with Ultracel-10 membrane from Millipore). Further purification of the concentrated protein was carried out using gel filtration chromatography on a HiLoad 26/600 Superdex 75 preparative grade column (GE Healthcare Life Sciences) using 50 mM Tris pH 7.5, 50 mM NaCl, 1 mM dithiothreitol, 1 mM MgCl2. Fractions containing the protein were pooled, concentrated as described above, and stored at −80° C.
The full length human COX-2 gene (accession number L15326) was amplified by PCR to generate an EcoRI—HindIII fragment containing an in-frame FLAG tag. This was subcloned into pFastBac 1 (Invitrogen). The COX-2 FLAG plasmid was recombined into the baculovirus genome according to the BAC-to-BAC protocol described by Invitrogen. Transfection into Spodoptera frugiperda (Sf9) insect cells was performed using Cellfectin (Invitrogen), according to the manufacturer's protocol. Super Sf9 cells were cultured in EX420 media (SAFC Biosciences) to a density of approximately 1.5×10^6 cells/mL within a wave bioreactor. Recombinant virus was added at a Multiplicity of Infection (MOI) of 5 and the culture was allowed to continue for 3 days. Cells were harvested using a continuous feed centrifuge run at 2500 g at a rate of approximately 2 L/min with cooling. The resultant cell slurry was re-centrifuged in pots (2500 g, 20 min, 4° C.) and the cell paste was stored at −80° C. […]
Regarding `Cc1ccnc(-c2ncc(C(=O)N[C@H]3CCNC3=O)s2)n1` [Example 42, (S)-2-(4-Methylpyrimidin-2-yl)-N-(2-oxopyrrolidin-3-yl)thiazole-5-carboxamide], the IC50 is 102 to 1000 nM.

As to `O=C(N[C@H]1CCNC1=S)c1cnc(-c2cc(F)cc(Cl)c2)s1` [Example 77, (S)-2-(3-Chloro-5-fluorophenyl)-N-(2-thioxopyrrolidin-3-yl)thiazole-5-carboxamide], the IC50 was 1.02 to 10 nM.

As to `O=C(N[C@H]1CCNC1=O)c1cnc(-c2cccc(Cl)c2F)s1` [Example 8, (S)-2-(3-Chloro-2-fluorophenyl)-N-(2-oxopyrrolidin-3-yl)thiazole-5-carboxamide], the IC50 is 10.2 to 100 nM.

With `Cc1cccc(-c2ncc(C(=O)N[C@H]3CCNC3=O)s2)c1` [Example 5, (S)-N-(2-Oxopyrrolidin-3-yl)-2-(m-tolyl)thiazole-5-carboxamide], the IC50 is 1.02 to 10 nM.

As for `O=C(N[C@@H]1CC2(COC2)NC1=O)c1cnc(-c2cc(F)cc(Cl)c2)s1` [Example 56, (R)-2-(3-Chloro-5-fluorophenyl)-N-(6-oxo-2-oxa-5-azaspiro[3.4]octan-7-yl)thiazole-5-carboxamide], the IC50 was 102 to 1000 nM.

Take `N#Cc1cccc(-c2ncc(C(=O)N[C@H]3CCNC3=O)s2)c1` [Example 43, (S)-2-(3-Cyanophenyl)-N-(2-oxopyrrolidin-3-yl)thiazole-5-carboxamide]: the IC50 was 102 to 1000 nM.

With `O=C(N[C@H]1C(=O)N[C@@H]2CCC[C@@H]21)c1cnc(-c2cc(F)cc(Cl)c2)s1` (racemic) [Example 49, Racemic 2-(3-Chloro-5-fluorophenyl)-N-((3R,3aS,6aR)-2-oxooctahydrocyclopenta[b]pyrrol-3-yl)thiazole-5-carboxamide; and 2-(3-Chloro-5-fluorophenyl)-N-((3S,3aR,6aS)-2-oxooctahydrocyclopenta[b]pyrrol-3-yl)thiazole-5-carboxamide], the IC50 was 1.02 to 10 nM.

For `O=C(N[C@H]1C(=O)N[C@@H]2COC[C@@H]21)c1cnc(-c2cc(F)cc(Cl)c2)s1` [Example 54, 2-(3-Chloro-5-fluorophenyl)-N-((3R,3aS,6aS)-2-oxohexahydro-1H-furo[3,4-b]pyrrol-3-yl)thiazole-5-carboxamide], the IC50 was 10.2 to 100 nM.

In the case of `O=C(N[C@@H]1C(=O)N[C@H]2CCC[C@H]21)c1cnc(-c2cc(F)cc(Cl)c2)s1` [Example 51, 2-(3-Chloro-5-fluorophenyl)-N-((3S,3aR,6aS)-2-oxooctahydrocyclopenta[b]pyrrol-3-yl)thiazole-5-carboxamide], the IC50 was 1.02 to 10 nM.

As for `CCC1(CC)CNC(=O)[C@H]1NC(=O)c1cnc(-c2cc(F)cc(Cl)c2)s1` [Example 25, (S)-2-(3-Chloro-5-fluorophenyl)-N-(4,4-diethyl-2-oxopyrrolidin-3-yl)thiazole-5-carboxamide], the IC50 is 10.2 to 100 nM.

For `O=C(N[C@H]1CCNC1=O)c1cnc(-c2cccc(Br)c2)s1` [Example 37, (S)-2-(3-Bromophenyl)-N-(2-oxopyrrolidin-3-yl)thiazole-5-carboxamide], the IC50 is 10.2 to 100 nM.

As to `O=C(N[C@H]1CCNC1=O)c1cnc(-c2cc(F)cc(C(F)F)c2)s1` [Example 12, (S)-2-(3-(Difluoromethyl)-5-fluorophenyl)-N-(2-oxopyrrolidin-3-yl)thiazole-5-carboxamide], the IC50 was 1.02 to 10 nM.

Turning to `CN(C(=O)c1cnc(-c2cc(F)cc(Cl)c2)s1)[C@@H]1CCNC1=O` [Example 67, (R)-2-(3-Chloro-5-fluorophenyl)-N-methyl-N-(2-oxopyrrolidin-3-yl)thiazole-5-carboxamide], the IC50 was more than 10000 nM.

Turning to `O=C(N[C@H]1CCNC1=O)c1cnc(-c2cc(F)cc(Cl)c2)s1` [Example 6, (S)-2-(3-Chloro-5-fluorophenyl)-N-(2-oxopyrrolidin-3-yl)thiazole-5-carboxamide], the IC50 was 1.02 to 10 nM.

In the case of `CC1(C)C[C@@H](NC(=O)c2cnc(-c3cc(F)cc(Cl)c3)s2)C(=S)N1` [Example 84, (R)-2-(3-Chloro-5-fluorophenyl)-N-(5,5-dimethyl-2-thioxopyrrolidin-3-yl)thiazole-5-carboxamide], the IC50 was 102 to 1000 nM.

Turning to `CC1(C)C[C@@H](NC(=O)c2cnc(-c3cc(F)cc(Cl)c3)s2)C(=O)N1` (single isomer, unassigned) [Example 15], the IC50 is 102 to 1000 nM.

Consider `CC1(C)CC(NC(=O)c2cnc(-c3cc(F)cc(C(F)F)c3)s2)C(=O)N1` (racemic) [Example 18, Racemic 2-(3-(Difluoromethyl)-5-fluorophenyl)-N-(5,5-dimethyl-2-oxopyrrolidin-3-yl)thiazole-5-carboxamide], for which the IC50 is 10.2 to 100 nM.

For the molecule `C[C@H]1CNC(=O)[C@H]1NC(=O)c1cnc(-c2cc(F)cc(Cl)c2)s1` [Example 75, 2-(3-Chloro-5-fluorophenyl)-N-((3S,4S)-4-methyl-2-oxopyrrolidin-3-yl)thiazole-5-carboxamide], the IC50 was 10.2 to 100 nM.

In the case of `O=C(N[C@H]1C(=O)N[C@H]2CCC[C@H]21)c1cnc(-c2cc(F)cc(Cl)c2)s1` [Example 59, 2-(3-Chloro-5-fluorophenyl)-N-((3R,3aR,6aS)-2-oxooctahydrocyclopenta[b]pyrrol-3-yl)thiazole-5-carboxamide], the IC50 is 102 to 1000 nM.

As for `C[C@H]1[C@H](C)NC(=O)[C@@H]1NC(=O)c1cnc(-c2cc(F)cc(Cl)c2)s1` [Example 35, 2-(3-Chloro-5-fluorophenyl)-N-((3R,4S,5S)-4,5-dimethyl-2-oxopyrrolidin-3-yl)thiazole-5-carboxamide], the IC50 was 102 to 1000 nM.

With `Cc1cn(-c2ncc(C(=O)N[C@H]3CCNC3=O)s2)cn1` [Example 32, (S)-2-(4-Methyl-1H-imidazol-1-yl)-N-(2-oxopyrrolidin-3-yl)thiazole-5-carboxamide], the IC50 was 1020 to 10000 nM.

In the case of `O=C(N[C@H]1CCNC1=O)c1cnc(-c2cccc(Cl)c2)s1` [Example 3, (S)-2-(3-Chlorophenyl)-N-(2-oxopyrrolidin-3-yl)thiazole-5-carboxamide], the IC50 was 10.2 to 100 nM.

Take `C[C@@H]1CNC(=O)[C@H]1NC(=O)c1cnc(-c2cc(F)cc(C(F)F)c2)s1` [Example 13, 2-(3-(Difluoromethyl)-5-fluorophenyl)-N-((3S,4R)-4-methyl-2-oxopyrrolidin-3-yl)thiazole-5-carboxamide]: the IC50 is 1.02 to 10 nM.

On to `O=C(N[C@H]1CCNC1=O)c1cnc(-c2cccc3ccoc23)s1` [Example 1, (S)-2-(Benzofuran-7-yl)-N-(2-oxopyrrolidin-3-yl)thiazole-5-carboxamide], for which the IC50 was 10.2 to 100 nM.

Regarding `O=C(N[C@H]1CCNC1=O)c1cnc(-c2cccc(O)c2)s1` [Example 69, (S)-2-(3-Hydroxyphenyl)-N-(2-oxopyrrolidin-3-yl)thiazole-5-carboxamide], the IC50 is 10.2 to 100 nM.

As to `CC1(NC(=O)c2cnc(-c3cc(F)cc(Cl)c3)s2)CCNC1=O` (racemic) [Example 71, Racemic 2-(3-Chloro-5-fluorophenyl)-N-(3-methyl-2-oxopyrrolidin-3-yl)thiazole-5-carboxamide], the IC50 was 102 to 1000 nM.

Take `O=C(N[C@H]1CCNC1=[Se])c1cnc(-c2cc(F)cc(Cl)c2)s1` [Example 78, (S)-2-(3-chloro-5-fluorophenyl)-N-(2-selenoxopyrrolidin-3-yl)thiazole-5-carboxamide]: the IC50 was 1.02 to 10 nM.
